Test results as given in ChEMBL document CHEMBL5528038, “Discovery of 2,3-Diaminoindole Derivatives as a Novel Class of NOD Antagonists” (J Med Chem, 2024).

What was measured:
in vitro [1] = conditions: human, HEK-Blue hNOD1 cells
in vitro [2] = conditions: human, HEK-Blue hNOD2 cells
[3] = target: T1, Nucleotide-binding oligomerization domain-containing protein 1 (Homo sapiens, UniProt Q9Y239)
T1 sequence (Q9Y239 whole entry): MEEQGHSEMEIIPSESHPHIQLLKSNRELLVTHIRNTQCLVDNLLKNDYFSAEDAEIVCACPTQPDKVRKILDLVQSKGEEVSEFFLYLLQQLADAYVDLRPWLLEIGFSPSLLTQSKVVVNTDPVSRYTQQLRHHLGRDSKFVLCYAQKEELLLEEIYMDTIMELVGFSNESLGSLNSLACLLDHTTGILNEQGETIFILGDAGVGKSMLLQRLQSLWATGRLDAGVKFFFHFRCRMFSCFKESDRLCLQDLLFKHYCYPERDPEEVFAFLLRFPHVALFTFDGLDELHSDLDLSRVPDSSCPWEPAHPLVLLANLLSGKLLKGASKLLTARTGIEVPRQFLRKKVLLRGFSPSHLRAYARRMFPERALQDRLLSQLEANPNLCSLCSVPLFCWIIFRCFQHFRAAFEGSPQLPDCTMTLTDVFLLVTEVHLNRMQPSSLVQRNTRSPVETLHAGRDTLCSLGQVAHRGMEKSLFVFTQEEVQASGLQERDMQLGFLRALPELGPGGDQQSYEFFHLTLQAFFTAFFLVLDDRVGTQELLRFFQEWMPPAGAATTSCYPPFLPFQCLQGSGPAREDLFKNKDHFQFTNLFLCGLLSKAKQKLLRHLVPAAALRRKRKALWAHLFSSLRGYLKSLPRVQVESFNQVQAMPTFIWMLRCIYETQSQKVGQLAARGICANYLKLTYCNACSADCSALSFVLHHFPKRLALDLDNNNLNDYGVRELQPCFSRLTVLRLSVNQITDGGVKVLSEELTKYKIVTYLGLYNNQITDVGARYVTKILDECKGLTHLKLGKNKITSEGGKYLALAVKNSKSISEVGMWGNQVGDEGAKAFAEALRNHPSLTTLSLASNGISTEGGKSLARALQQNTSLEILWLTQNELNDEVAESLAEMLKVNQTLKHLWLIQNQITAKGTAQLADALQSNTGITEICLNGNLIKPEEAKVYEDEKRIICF
Description: Antagonist activity at human NOD1 expressed in HEK-Blue cells coexpressing NF-kappaB-inducible SEAP reporter gene assessed as inhibition of C12-iE-DAP-induced NF-kappaB transcriptional activity by measuring decrease in SEAP activity preincubated for 1 hr followed by C12-iE-DAP addition and measured after 18 hrs by spectrophotometric analysis

[4] = target: Nucleotide-binding oligomerization domain-containing protein 2 (Homo sapiens, UniProt Q9HC29)
Nucleotide-binding oligomerization domain-containing protein 2, sequence (Q9HC29 whole entry, the tested form may be a part): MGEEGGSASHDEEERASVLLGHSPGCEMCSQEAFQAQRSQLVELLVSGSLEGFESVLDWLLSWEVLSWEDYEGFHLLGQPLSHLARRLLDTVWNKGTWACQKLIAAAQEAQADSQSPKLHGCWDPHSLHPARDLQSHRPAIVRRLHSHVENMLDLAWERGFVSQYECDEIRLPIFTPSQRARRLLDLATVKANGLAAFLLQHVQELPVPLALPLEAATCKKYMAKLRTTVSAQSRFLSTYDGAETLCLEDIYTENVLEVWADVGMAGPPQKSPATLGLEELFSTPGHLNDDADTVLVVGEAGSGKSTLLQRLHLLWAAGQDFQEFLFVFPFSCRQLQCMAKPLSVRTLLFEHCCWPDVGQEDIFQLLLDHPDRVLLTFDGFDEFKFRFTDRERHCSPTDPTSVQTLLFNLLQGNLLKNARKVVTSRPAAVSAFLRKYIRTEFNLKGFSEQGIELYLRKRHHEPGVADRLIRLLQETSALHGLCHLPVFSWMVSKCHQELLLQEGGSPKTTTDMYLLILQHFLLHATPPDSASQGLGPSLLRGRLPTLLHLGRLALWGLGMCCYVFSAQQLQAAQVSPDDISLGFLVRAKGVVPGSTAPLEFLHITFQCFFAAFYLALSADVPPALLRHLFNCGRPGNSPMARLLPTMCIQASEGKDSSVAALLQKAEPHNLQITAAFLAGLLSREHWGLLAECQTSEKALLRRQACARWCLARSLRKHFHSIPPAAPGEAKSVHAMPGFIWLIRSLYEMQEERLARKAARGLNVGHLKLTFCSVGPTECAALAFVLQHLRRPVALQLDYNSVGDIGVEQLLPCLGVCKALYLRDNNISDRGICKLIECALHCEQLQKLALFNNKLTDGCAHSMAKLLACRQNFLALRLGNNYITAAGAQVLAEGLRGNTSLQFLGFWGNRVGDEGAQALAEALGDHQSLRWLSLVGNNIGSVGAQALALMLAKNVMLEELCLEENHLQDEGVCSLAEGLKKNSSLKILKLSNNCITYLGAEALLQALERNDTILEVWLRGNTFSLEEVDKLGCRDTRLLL
Description: Antagonist activity at human NOD2 (unknown origin)

| IC50 [3] | IC50 [4] | SMILES | viability at 18 h, 25 µM (in vitro [1]) | viability at 18 h, 25 µM (in vitro [2]) |
| --- | --- | --- | --- | --- |
|  |  | CC(C)(C)Nc1c(N2CCOCC2)c2ccccc2n1S(=O)(=O)c1ccc([N+](=O)[O-])cc1 | ≥ 80% | ≥ 80% |
|  |  | Cc1ccc(S(=O)(=O)n2c(NC3CCCCC3)c(N3CCN(C)CC3)c3cc4ccccc4cc32)cc1 | ≥ 80% | ≥ 80% |
|  |  | Cc1ccc(S(=O)(=O)n2c(NC(C)(C)C)c(N3CCN(C)CC3)c3cc4ccccc4cc32)cc1 | ≥ 80% | ≥ 80% |
|  |  | CCN(CC)c1c(NC(C)(C)C)n(S(=O)(=O)c2ccc(C)cc2)c2ccccc12 | ≥ 80% | ≥ 80% |
|  |  | COC(=O)CNc1c(N2CCOCC2)c2ccccc2n1S(=O)(=O)c1ccc(C)cc1 | ≥ 80% | ≥ 80% |
|  |  | Cc1ccc(S(=O)(=O)n2c(NC(C)(C)C)c(N3CCOCC3)c3cc(Cl)ccc32)cc1 | ≥ 80% | ≥ 80% |
| 18.5 µM |  | Cc1ccc(S(=O)(=O)n2c(NC3CCCCC3)c(N3CCN(C)CC3)c3ccccc32)cc1 | ≥ 80% | ≥ 80% |
|  |  | COc1ccc(S(=O)(=O)n2c(NC(C)(C)C)c(N3CCOCC3)c3ccccc32)cc1 | ≥ 80% | ≥ 80% |
|  |  | CCN(CC)c1c(NC(C)(C)C)n(S(=O)(=O)c2ccc(C)cc2)c2cccc(C)c12 | ≥ 80% | ≥ 80% |
|  |  | Cc1ccc(S(=O)(=O)n2c(NCc3ccccc3)c(N3CCN(C)CC3)c3ccccc32)cc1 | ≥ 80% | ≥ 80% |
|  |  | Cc1ccc(S(=O)(=O)n2c(NC(C)(C)C)c(N3CCOCC3)c3ccccc32)cc1 | ≥ 80% | ≥ 80% |
|  |  | Cc1ccc(S(=O)(=O)n2c(NC3CC3)c(N3CCOCC3)c3cc(Cl)ccc32)cc1 | ≥ 80% | ≥ 80% |
|  |  | Cc1ccc(S(=O)(=O)n2c(NC(C)(C)C)c(N3CCCCC3)c3ccccc32)cc1 | ≥ 80% | ≥ 80% |
|  |  | Cc1ccc(S(=O)(=O)n2c(NCc3ccccc3)c(N3CCOCC3)c3ccccc32)cc1 | ≥ 80% | ≥ 80% |
|  |  | C#CCN(C)c1c(Nc2ccc3ccccc3c2)n(S(=O)(=O)c2ccc(C)cc2)c2cc(Cl)ccc12 | ≥ 80% | ≥ 80% |
|  |  | O=[N+]([O-])c1ccc(S(=O)(=O)n2c(NCc3ccccc3)c(N3CCOCC3)c3ccccc32)cc1 | ≥ 80% | ≥ 80% |
|  | > 20 µM | CCCCCn1c(SCCc2ccccc2)nc2[nH]c(=O)[nH]c(=O)c21 |  |  |
| 20.7 µM |  | Cc1ccc(S(=O)(=O)n2c(NCc3ccccc3)c(N3CCN(C)CC3)c3cc4ccccc4cc32)cc1 | ≥ 80% | ≥ 80% |
|  |  | CCCCCNc1c(N(CC)CC)c2ccccc2n1S(=O)(=O)c1ccc(C)cc1 | ≥ 80% | ≥ 80% |
|  |  | CCCCCNc1c(N2CCOCC2)c2ccccc2n1S(=O)(=O)c1ccc(C)cc1 | ≥ 80% | ≥ 80% |
| 26.1 µM |  | CCCCCNc1c(N2CCOCC2)c2ccccc2n1S(=O)(=O)c1ccc([N+](=O)[O-])cc1 | ≥ 80% | ≥ 80% |
